Experimental data published in patent US20260007673A1, “ROCK2 INHIBITORS FOR THE TREATMENT OF VIRAL INFECTIONS” (GRAVITON BIOSCIENCE BV, priority 2022, published 2026).

Assays:
SARS-CoV-2 Delta variant = type: in vivo, mice; settings: 100 and 300 mg/kg daily oral gavage
[1] = system: SARS-CoV-2 Omicron variant; type: in vivo, mice; settings: 100 and 300 mg/kg daily oral gavage, 7, 14, 21 days (FIG. 15B)

For `Cn1c(C(=O)N2CC(F)(F)C2)cc2ccc(-c3nccc(Nc4ccc(-c5cn[nH]c5)cc4)n3)cc21` [Compound 2, (6-(4-((4-(1H-pyrazol-4-yl)phenyl)amino)pyrimidin-2-yl)-1-methyl-1H-indol-2-yl)(3,3-difluoroazetidin-1-yl)methanone], the “viral load in the lung” value (SARS-CoV-2 Delta variant) was “effect was observed” and the “viral load in the lung” value [1] was “effect was observed”.
